One experiment deals with GSPT1 (Homo sapiens, UniProt P15170+Q96SW2). Briefly: HiBiT degradation assay, 293T.114 cells, GSPT1. The experiment is classed as cell-based. The conditions noted are these: for DC50: read-out: HiBiT-Degradation 293T.114 GSPT1 6 hours DC50. On the procedure:
GSPT1 degradation was determined based on quantification of luminescent signal using Nano-Glo® HiBiT Lytic Assay kit. Test compounds were added to the 384-well plate from a top concentration of 10 μM with 5 points, 3-fold titration in quadruplicates. 293T.114 cells were added into 384-well plates at a cell density of 6000 cells per well. […] The cells treated in the absence of the test compound were the negative control and the cells without Nano-Glo® HiBiT Lytic reagent were the positive control. […] Luminescence was acquired on EnVision™ Multilabel Reader (PerkinElmer, Santa Clara, CA, USA).
Background: HiBiT is a short tag that completes a luciferase, so light tracks the accessible tagged protein.

Another experiment has as its target SALL4 (Homo sapiens, UniProt Q96SW2+Q9UJQ4). Briefly: HiBiT degradation assay, KELLY.2 (SALL4-HiBiT) cells. The experiment is classed as cell-based. The conditions noted are these: for DC50: KELLY.2 cells, 6 hours; for Emax: read-out: HiBiT-Degradation KELLY.2 SALL4 6 hours Emax, KELLY.2 cells. On the procedure: RPMI 1640 Medium without phenol red, fetal bovine serum (FBS), and Sodium Pyruvate (100 mM) were purchased from Gibco (Grand Island, NY, USA). Nano-Glo® HiBiT Lytic Assay System was purchased from Promega (Madison, WI, USA). […] Cell culture flasks and 384-well microplates were acquired from VWR (Radnor, PA, USA).
SALL4 degradation was determined based on quantification of luminescent signal using Nano-Glo® HiBiT Lytic Assay kit. Test compounds were added to the 384-well plate from a top concentration of 10 μM with 11 points, half log titration in duplicates. KELLY.2 cells were added into 384-well plates at a cell density of 6000 cells per well. The plates were kept at 37° C. with 5% CO2 for 6 hours. The cells treated in the absence of the test compound were the negative control and the cells without Nano-Glo® HiBiT Lytic reagent were the positive control. After 6-hour incubation, Nano-Glo® HiBiT Lytic Assay reagents were added to the cells. Luminescence was acquired on EnVision™ Multilabel Reader (PerkinElmer, Santa Clara, CA, USA).

[1] abbreviates: read-out: HiBiT-Degradation 293T.114 GSPT1 6 hours Emax, 293T.114 cells, 6 hours.

As a reminder, the DC50 is the midpoint of the concentration-degradation curve. By Emax is commonly meant the size of the effect at its maximum, as opposed to the concentration needed.

Where two headings read alike, the source gives them in different places.

Chain of GSPT1 (P15170 whole entry): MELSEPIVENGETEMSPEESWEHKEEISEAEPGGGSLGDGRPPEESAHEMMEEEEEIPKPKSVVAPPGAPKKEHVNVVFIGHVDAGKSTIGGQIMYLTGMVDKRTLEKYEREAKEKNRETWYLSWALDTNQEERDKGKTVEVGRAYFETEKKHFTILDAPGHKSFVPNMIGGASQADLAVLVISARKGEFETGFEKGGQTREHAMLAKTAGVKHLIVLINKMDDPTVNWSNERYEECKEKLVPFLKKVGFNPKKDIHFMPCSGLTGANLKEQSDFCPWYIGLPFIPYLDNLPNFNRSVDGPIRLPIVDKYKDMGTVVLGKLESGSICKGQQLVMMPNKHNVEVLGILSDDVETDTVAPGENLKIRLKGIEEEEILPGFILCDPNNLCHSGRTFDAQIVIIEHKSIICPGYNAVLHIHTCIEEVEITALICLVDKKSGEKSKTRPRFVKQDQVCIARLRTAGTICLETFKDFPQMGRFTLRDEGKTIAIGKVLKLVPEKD
Chain of GSPT1 (Q96SW2 whole entry): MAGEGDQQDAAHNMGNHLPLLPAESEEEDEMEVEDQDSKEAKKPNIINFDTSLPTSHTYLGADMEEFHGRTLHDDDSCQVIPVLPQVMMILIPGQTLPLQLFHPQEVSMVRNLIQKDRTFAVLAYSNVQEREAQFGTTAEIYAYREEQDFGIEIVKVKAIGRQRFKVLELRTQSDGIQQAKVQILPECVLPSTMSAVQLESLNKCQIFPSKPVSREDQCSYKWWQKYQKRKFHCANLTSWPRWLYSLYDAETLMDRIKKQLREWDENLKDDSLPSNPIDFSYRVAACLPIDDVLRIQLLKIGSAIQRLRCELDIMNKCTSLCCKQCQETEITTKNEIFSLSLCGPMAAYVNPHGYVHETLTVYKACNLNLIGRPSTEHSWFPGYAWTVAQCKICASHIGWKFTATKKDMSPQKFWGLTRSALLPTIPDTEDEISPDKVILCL
Chain of GSPT1 (Q16531 2-1140 partner limits assumed): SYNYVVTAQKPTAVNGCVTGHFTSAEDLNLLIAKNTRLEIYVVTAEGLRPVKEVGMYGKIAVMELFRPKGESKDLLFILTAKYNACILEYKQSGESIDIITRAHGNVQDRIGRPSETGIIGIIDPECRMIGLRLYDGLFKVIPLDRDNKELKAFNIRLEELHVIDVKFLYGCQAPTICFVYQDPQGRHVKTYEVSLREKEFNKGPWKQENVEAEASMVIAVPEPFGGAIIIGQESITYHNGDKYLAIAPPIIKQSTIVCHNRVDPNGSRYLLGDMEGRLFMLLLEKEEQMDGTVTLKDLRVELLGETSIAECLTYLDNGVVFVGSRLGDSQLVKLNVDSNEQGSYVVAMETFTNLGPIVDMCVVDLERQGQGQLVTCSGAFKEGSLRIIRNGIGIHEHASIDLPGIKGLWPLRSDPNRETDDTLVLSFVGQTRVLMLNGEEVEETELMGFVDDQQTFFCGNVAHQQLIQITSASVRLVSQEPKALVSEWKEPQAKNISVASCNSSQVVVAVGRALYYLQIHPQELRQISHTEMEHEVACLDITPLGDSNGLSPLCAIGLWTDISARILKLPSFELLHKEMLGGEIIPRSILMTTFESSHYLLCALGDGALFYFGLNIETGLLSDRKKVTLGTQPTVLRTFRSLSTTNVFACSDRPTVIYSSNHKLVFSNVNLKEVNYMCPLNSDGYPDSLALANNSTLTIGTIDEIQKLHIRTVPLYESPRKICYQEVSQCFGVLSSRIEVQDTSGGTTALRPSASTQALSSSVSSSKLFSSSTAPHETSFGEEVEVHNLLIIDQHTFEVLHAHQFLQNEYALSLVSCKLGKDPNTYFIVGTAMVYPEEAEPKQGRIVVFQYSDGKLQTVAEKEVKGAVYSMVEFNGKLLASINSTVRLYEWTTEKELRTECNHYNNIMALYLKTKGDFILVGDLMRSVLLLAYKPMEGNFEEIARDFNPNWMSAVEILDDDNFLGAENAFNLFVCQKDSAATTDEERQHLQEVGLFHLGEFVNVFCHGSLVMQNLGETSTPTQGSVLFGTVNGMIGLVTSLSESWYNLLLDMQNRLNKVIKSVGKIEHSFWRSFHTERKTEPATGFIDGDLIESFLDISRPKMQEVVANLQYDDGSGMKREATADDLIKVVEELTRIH
Chain of SALL4 (Q9UJQ4 whole entry): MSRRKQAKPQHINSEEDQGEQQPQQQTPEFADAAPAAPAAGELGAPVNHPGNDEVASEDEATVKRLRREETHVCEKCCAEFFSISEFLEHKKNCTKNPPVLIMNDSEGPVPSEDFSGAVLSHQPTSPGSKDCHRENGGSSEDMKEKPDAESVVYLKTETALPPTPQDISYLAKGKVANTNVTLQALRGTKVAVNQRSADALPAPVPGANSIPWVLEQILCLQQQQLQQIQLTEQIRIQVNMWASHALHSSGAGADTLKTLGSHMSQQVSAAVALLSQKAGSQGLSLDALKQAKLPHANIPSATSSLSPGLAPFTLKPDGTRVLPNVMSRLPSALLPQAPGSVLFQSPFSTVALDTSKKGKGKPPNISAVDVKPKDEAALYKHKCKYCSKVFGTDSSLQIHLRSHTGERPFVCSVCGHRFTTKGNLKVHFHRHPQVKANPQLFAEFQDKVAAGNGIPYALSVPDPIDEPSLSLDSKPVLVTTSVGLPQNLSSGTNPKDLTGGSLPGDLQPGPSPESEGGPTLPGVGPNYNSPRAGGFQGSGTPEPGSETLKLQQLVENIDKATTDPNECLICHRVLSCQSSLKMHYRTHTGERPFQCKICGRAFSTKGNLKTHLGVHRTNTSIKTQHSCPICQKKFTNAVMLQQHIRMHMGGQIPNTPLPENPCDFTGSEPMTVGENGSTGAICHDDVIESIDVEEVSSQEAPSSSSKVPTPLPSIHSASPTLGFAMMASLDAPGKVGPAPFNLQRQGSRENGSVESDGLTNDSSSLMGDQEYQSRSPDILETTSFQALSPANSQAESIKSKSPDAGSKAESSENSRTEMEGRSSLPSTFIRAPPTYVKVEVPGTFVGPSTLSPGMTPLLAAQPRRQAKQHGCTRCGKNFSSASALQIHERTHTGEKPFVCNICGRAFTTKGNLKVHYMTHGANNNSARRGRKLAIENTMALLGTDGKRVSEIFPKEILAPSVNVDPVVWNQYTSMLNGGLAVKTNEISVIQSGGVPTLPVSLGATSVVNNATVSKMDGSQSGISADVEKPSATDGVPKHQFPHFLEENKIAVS
Chain of SALL4 (Q96SW2 whole entry): as the sequence (Q96SW2 whole entry) above
Chain of SALL4 (Q16531 2-1140 partner limits assumed): as the sequence (Q16531 2-1140 partner limits assumed) above

Take `O=C1CCC(N2C(=O)c3ccc(C4(F)CCN(Cc5ccccc5)CC4)c4nccc2c34)C(=O)N1` (centres unmarked) [Compound 81, 3-[18-(1-benzyl-4-fluoro-4-piperidyl)-24-oxo-27,30-diazatricyclododeca-5(17),6(18),7(19),8(27),20-pentaen-30-yl]piperidine-2,6-dione]: the DC50 on GSPT1 (293T.114 cells, 6 hours) was above 100 nM; on SALL4, below 100 nM. Moreover, the Emax at GSPT1 (setting [1]) is 60 to 95%; on SALL4 it was below 45%.

As to `O=C1CCC(N2C(=O)c3cc(CNCc4ccco4)cc4cccc2c34)C(=O)N1` (centres unmarked) [Compound 160], at GSPT1 (293T.114 cells, 6 hours), the DC50 is above 10000 nM. The maximal effect (Emax) on GSPT1 (setting [1]) lay within 45 to 60%.

`O=C1CCC(N2C(=O)c3ccc(CN4CC(Oc5ccccc5)C4)c4cccc2c34)C(=O)N1` (centres unmarked) [Compound 63, 3-(2-oxo-5-((3-phenoxyazetidin-1-yl)methyl)benzo[cd]indol-1(2H)-yl)piperidine-2,6-dione]: the Emax at GSPT1 (read-out: GSPT1 Emax @ 10 μM 24 Hours, 24 hours) is below 45%.

On to `N#CC1(C(=O)N2CCC(n3cc(Cc4ccc5c6c(cccc46)C(=O)N5C4CCC(=O)NC4=O)cn3)CC2)CCC1` (centres unmarked) [Compound 200, 1-[4-[4-[[1-(2,6-dioxo-3-piperidyl)-2-oxo-benzo[cd]indol-6-yl]methyl]pyrazol-1-yl]piperidine-1-carbonyl]cyclobutanecarbonitrile], for which the 50% degradation concentration (DC50) at GSPT1 (293T.114 cells, 6 hours) is above 10000 nM; on SALL4, below 100 nM. Also, the maximum response (Emax) was above 95% on GSPT1 (setting [1]) and below 45% on SALL4.

As to `CC1(n2cc(Cc3ccc4c5c(cccc35)C(=O)N4C3CCC(=O)NC3=O)cn2)CCN(c2ncccc2F)CC1` (centres unmarked) [Compound 208, 3-[6-[[1-[1-(3-fluoro-2-pyridyl)-4-methyl-4-piperidyl]pyrazol-4-yl]methyl]-2-oxo-benzo[cd]indol-1-yl]piperidine-2,6-dione], the half-maximal degradation concentration (DC50) is above 10000 nM at GSPT1 (293T.114 cells, 6 hours) and below 100 nM on SALL4. For the same compound, the results for the Emax at GSPT1 (setting [1]) and at SALL4 were 60 to 95% and below 45%, respectively.

For the compound `CN1CC(c2ccc3c4c(cccc24)N(C2CCC(=O)NC2=O)C3=O)C1` (centres unmarked) [Compound 90, 3-[5-(1-methylazetidin-3-yl)-2-oxo-benzo[cd]indol-1-yl]piperidine-2,6-dione], the half-maximal degradation concentration (DC50) is above 100 nM on GSPT1 (293T.114 cells, 6 hours) and below 100 nM at SALL4. Further, the maximal effect (Emax) is 60 to 95% at GSPT1 (setting [1]) and below 45% on SALL4.

Turning to `CN(c1ccc2c3c(cccc13)N(C1CCC(=O)NC1=O)C2=O)C1CCN(Cc2ccccc2)C1` (centres unmarked) [Compound 220], at GSPT1 (293T.114 cells, 6 hours), the DC50 was above 100 nM. In addition, the maximal response (Emax) on GSPT1 (setting [1]) fell in the range of 60 to 95%.

With `Cc1cc(C)nc(-c2ccc3c4c(cccc24)N(C2CCC(=O)NC2=O)C3=O)n1` (centres unmarked) [Compound 87, 3-[5-(4,6-dimethylpyrimidin-2-yl)-2-oxo-benzo[cd]indol-1-yl]piperidine-2,6-dione], the DC50 at GSPT1 (293T.114 cells, 6 hours) is above 100 nM; on SALL4, below 100 nM. For the same compound, the maximal response (Emax) at GSPT1 (setting [1]) was 60 to 95%; at SALL4, below 45%.

With `CC(NC(=O)c1ccc2c3c(ccnc13)N(C1CCC(=O)NC1=O)C2=O)c1ccccc1` (centres unmarked) [Compound 185, 27-(2,6-dioxo-3-piperidyl)-20-oxo-N-(1-phenylethyl)-24,27-diazatricyclododeca-6,8(15),9(24),13(16),14(17)-pentaene-14-carboxamide], the half-maximal degradation concentration (DC50) is above 100 nM on GSPT1 (293T.114 cells, 6 hours) and below 100 nM at SALL4. In addition, the Emax on GSPT1 (setting [1]) was 60 to 95%; at SALL4 it was below 45%.

For the origin of these results see US20240018118A1, “TRICYCLIC COMPOUNDS TO DEGRADE NEOSUBSTRATES FOR MEDICAL THERAPY” (C 4 Therapeutics, Inc., priority 2020, published 2024).
